Molecular target: T1, Stat1 (Homo sapiens, UniProt P42224)
T1 construct: endogenous in cells; host or cells: HepG2
T1 sequence (P42224 1-750): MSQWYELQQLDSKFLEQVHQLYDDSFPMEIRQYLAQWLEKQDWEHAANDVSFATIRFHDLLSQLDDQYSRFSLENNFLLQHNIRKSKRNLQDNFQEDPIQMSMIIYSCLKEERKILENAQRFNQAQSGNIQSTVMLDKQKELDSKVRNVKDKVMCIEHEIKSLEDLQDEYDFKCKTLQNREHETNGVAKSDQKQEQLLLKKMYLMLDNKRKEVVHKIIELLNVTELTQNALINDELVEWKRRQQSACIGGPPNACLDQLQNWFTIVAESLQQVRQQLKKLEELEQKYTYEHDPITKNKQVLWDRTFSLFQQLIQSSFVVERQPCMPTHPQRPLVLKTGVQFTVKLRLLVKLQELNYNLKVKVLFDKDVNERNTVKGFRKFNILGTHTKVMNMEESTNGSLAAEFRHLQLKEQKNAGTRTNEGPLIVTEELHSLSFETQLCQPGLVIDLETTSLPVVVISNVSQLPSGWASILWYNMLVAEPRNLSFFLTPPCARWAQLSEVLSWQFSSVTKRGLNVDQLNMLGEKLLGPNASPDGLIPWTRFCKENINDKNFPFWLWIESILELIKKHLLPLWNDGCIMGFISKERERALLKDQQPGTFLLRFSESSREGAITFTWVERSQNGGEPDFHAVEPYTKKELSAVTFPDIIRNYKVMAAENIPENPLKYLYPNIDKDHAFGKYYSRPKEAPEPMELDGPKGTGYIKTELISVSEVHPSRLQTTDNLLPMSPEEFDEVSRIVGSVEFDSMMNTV
Assay: Immunoblot assay: IFN-γ-mediated phosphorylation of Stat1 in HepG2 cells
Format: cell-based
Settings: 300 μM, 1 hour at 37° C. before IFN-γ stimulation
Description: Immunoblot assay. The human hepatocellular carcinoma cell line (HepG2) was grown in 6-well plates under standard conditions. Cells were pretreated with compounds (0, 1, 3, 10, 30, 100 and 300 uM) for 1 hour then stimulated under optimal conditions with either interferon gamma (IFN-γ; 30 ng/ml for 30 min) to activate Stat1 or interleukin-6 (IL-6; 30 ng/ml for 30 min) to activate Stat3 (30-31). Cultures were then harvested and proteins extracted using high-salt buffer, as described (Shao et al., 2006). Briefly, extracts were mixed with 2× sodium dodecyl sulfate (SDS) sample buffer (125 mmol/L Tris-HCL pH 6.8; 4% SDS; 20% glycerol; 10% 2-mercaptoethanol) at a 1:1 ratio and heated for 5 minutes at 100° C. Proteins (20 μg) were separated by 7.5% SDS-PAGE and transferred to polyvinylidene fluoride (PVDF) membrane (Millipore, Waltham, Mass.) and immunoblotted. Prestained molecular weight markers (Biorad, Hercules, Calif.) were included in each gel. Membranes were probed serially with antibody against Stat1 pY^701 or Stat3 pY^705 followed by antibody against Stat1 or Stat3 (Transduction labs, Lexington, Ky.) then antibody against β-actin (Abcam, Cambridge, Mass.). Membranes were stripped between antibody probing using Restore™ Western Blot Stripping Buffer (Thermo Fisher Scientific Inc., Waltham, Mass.) per the manufacturer's instructions. Horseradish peroxidase-conjugated goat-anti-mouse IgG was used as the secondary antibody (Invitrogen Carlsbad, Calif.) and the membranes were developed with enhanced chemiluminescence (ECL) detection system (Amersham Life Sciences Inc.; Arlington Heights, Ill.).
EXP IIC. Ligand-mediated pStat3 and pStat1 inhibition assays. […] Briefly, human hepatocellular carcinoma cells (HepG2) are grown in 6-well plates and pretreated with compounds (0, 0.1, 0.3, 1, 3, 10, 30, 100 μM) for 1 hour then stimulated under optimal conditions with either interleukin-6 (IL-6; 30 ng/ml for 30 min) to activate Stat3 or interferon gamma (IFN-γ; 30 ng/ml for 30 min) to activate Stat1. Cells are harvested and proteins extracted using high-salt buffer, mixed with 2× sodium dodecyl sulfate (SDS) sample buffer (125 mmol/L Tris-HCL pH 6.8; 4% SDS; 20% glycerol; 10% 2-mercaptoethanol) at a 1:1 ratio then heated for 5 minutes at 100° C. Proteins (20 μg) are separated by 7.5% SDS-PAGE and transferred to polyvinylidene fluoride (PVDF) membrane (Millipore, Waltham, Mass.) and immunoblotted. Membranes are probed serially with antibody against Stat1 pY701 or Stat3 pY705 followed by antibody against Stat 1 or Stat3 (Transduction labs, Lexington, Ky.) then antibody against β-actin (Abcam, Cambridge, Mass.). Membranes are stripped between antibody probings using Restore™ Western Blot Stripping Buffer (Thermo Fisher Scientific Inc., Waltham, Mass.) per the manufacturer's instructions. Horseradish peroxidase-conjugated goat-anti-mouse IgG is used as the secondary antibody (Invitrogen Carlsbad, Calif.) and the membranes are developed with enhanced chemiluminescence (ECL) detection system (Amersham Life Sciences Inc.; Arlington Heights, Ill.). Band intensities are quantified by densitometry. The value of each pStat3 band is divided by its corresponding total Stat3 band intensity; the results are normalized to the DMSO-treated control value. This value was plotted as a function of the log compound concentration. The best-fitting curve is determined using 4-Parameter Logistic Model/Dose Response/XLfit 4.2, IDBS software and was used to calculate the IC50 value.

Stat1 phosphorylation blocked: did not
Compound: O=C(O)CSc1cc(NS(=O)(=O)c2ccc(C(=O)O)cc2)c2ccccc2c1O [Cpd188, 4-[({3-[(carboxymethyl)thio]-4-hydroxy-1-naphthyl}amino)sulfonyl]benzoic acid]
